Reference: patent US10472347B2, “Aminopyrazine compounds with A2A antagonist properties” (Merck Sharp & Dohme Corp., priority 2014, dated 2019)

Target: T1, human A2a receptor (Homo sapiens, UniProt P29274)
T1 construct: purchased Perkin-Elmer RBHA2AM400UA; host or cells: HEK293 cells (membranes)
Experiment: A2a competition binding assay, Scintillation Proximity technology
Settings: membranes from HEK293 cells expressing human A2a receptor; 0.5 nM tritiated ligand
How it was run: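 Membranes from HEK293 cells expressing human A2a, adenosine deaminase-treated, incubated 1 h at room temperature with compound (3000 to 0.15 nM) and 0.5 nM tritiated pyrazolotriazolopyrimidine radioligand on WGA SPA beads in Ca/Mg-free PBS + 10 mM MgCl2. Non-specific binding with 1 μM CGS15943; Ki by Cheng-Prusoff.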

T1 sequence (P29274 whole entry): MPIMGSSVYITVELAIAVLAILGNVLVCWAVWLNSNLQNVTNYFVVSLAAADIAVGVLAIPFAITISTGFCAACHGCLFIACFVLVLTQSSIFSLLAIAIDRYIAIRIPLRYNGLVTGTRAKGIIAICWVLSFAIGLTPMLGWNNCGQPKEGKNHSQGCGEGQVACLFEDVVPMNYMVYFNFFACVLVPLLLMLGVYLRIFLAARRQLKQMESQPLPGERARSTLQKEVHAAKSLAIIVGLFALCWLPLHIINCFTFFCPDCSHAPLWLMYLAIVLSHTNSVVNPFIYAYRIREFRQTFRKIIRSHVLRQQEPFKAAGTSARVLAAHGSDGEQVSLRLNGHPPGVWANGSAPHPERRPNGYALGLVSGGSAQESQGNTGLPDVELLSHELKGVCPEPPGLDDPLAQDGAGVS

Q: Which EC50 does the source give for Cc1cccc(CNC(=O)c2nc(C)c(-c3ncco3)nc2N)n1 [Ex-10, 3-amino-6-methyl-N-[(6-methylpyridin-2-yl)methyl]-5-(1,3-oxazol-2-yl)pyrazine-2-carboxamide] here?
A: The EC50 was 1.2 nM.

Same assay, conditions: membranes from HEK293 cells expressing human A2a receptor; Ki by Cheng-Prusoff equation

Q: For Cc1nc(C(=O)NCc2cn(CC3CC3)cn2)c(N)nc1-c1ncco1 [Ex-114, 3-amino-N-{[1-(cyclopropylmethyl)-1H-imidazol-4-yl]methyl}-6-methyl-5-(1,3-oxazol-2-yl)pyrazine-2-carboxamide], which Ki is on record?
A: Its Ki is 5.76 nM.

Q: Which Ki does the source give for Cc1nc(C(=O)NCc2ncccc2Cl)c(N)nc1-c1ncco1 [Ex-72, 3-amino-N-[(3-chloropyridin-2-yl)methyl]-6-methyl-5-(1,3-oxazol-2-yl)pyrazine-2-carboxamide] here?
A: Its Ki is 0.287 nM.

Q: How did the Ki turn out when Cc1nc(C(=O)NCc2nc3ccccc3[nH]2)c(N)nc1-c1ncco1 [Ex-164, 3-amino-N-(1H-benzimidazol-2-ylmethyl)-6-methyl-5-(1,3-oxazol-2-yl)pyrazine-2-carboxamide] was run?
A: The Ki was 1.29 nM.

Q: With Nc1nc(-n2nccn2)c(Cl)nc1C(=O)N[C@@H](c1ccccc1)C(F)(F)F [Ex-286, 3-amino-6-chloro-5-(2H-1,2,3-triazol-2-yl)-N-[(1S)-2,2,2-trifluoro-1-phenylethyl]pyrazine-2-carboxamide] as the molecule, how does the Ki read?
A: The Ki was 124 nM.

Q: With Cc1nc(C(=O)NCc2c(C)nc3ccccn23)c(N)nc1-c1ncco1 [Ex-97, 3-amino-6-methyl-N-[(2-methylimidazo[1,2-a]pyridin-3-yl)methyl]-5-(1,3-oxazol-2-yl)pyrazine-2-carboxamide] as the molecule, how does the Ki read?
A: The Ki was 35.2 nM.

Q: With C#CC[C@H]1CCC[C@H]1NC(=O)c1nc(C)c(-c2ncco2)nc1N [Ex-208, 3-amino-6-methyl-5-(1,3-oxazol-2-yl)-N-[(1R,2R)-2-prop-2-yl-1-ylcyclopentyl]pyrazine-2-carboxamide] as the molecule, how does the Ki read?
A: The Ki was 0.982 nM.

Q: How did the Ki turn out when Cc1cccc(CNC(=O)c2nc(C)c(-c3ncco3)nc2N)n1 [Ex-10, 3-amino-6-methyl-N-[(6-methylpyridin-2-yl)methyl]-5-(1,3-oxazol-2-yl)pyrazine-2-carboxamide] was run?
A: The Ki was 0.573 nM.

Q: For Cc1nc(C(=O)NC2CC(O)c3cccnc32)c(N)nc1-c1ncco1 (stereo not drawn) [Ex-223, 3-amino-N-(5-hydroxy-6,7-dihydro-5H-cyclopenta[b]pyridin-7-yl)-6-methyl-5-(1,3-oxazol-2-yl)pyrazine-2-carboxamide], which Ki is on record?
A: Its Ki is 2.98 nM.

Q: Cc1nc(C(=O)N2Cc3cncnc3C2)c(N)nc1-c1ncco1 [Ex-151, 3-(5,7-dihydro-6H-pyrrolo[3,4-d]pyrimidin-6-ylcarbonyl)-5-methyl-6-(1,3-oxazol-2-yl)pyrazin-2-amine] was tested. Which Ki did it give?
A: Its Ki is 4.58 nM.

Q: With Cc1ccc(O)c(CNC(=O)c2nc(C)c(-c3ncco3)nc2N)c1 [Ex-154, 3-amino-N-(2-hydroxy-5-methylbenzyl)-6-methyl-5-(1,3-oxazol-2-yl)pyrazine-2-carboxamide] as the molecule, how does the Ki read?
A: Its Ki is 0.125 nM.

Q: With Cc1nc(C(=O)NCc2cccc3ncn(C)c23)c(N)nc1-c1ncco1 [Ex-219, 3-amino-6-methyl-N-[(1-methyl-1H-benzimidazol-7-yl)methyl]-5-(1,3-oxazol-2-yl)pyrazine-2-carboxamide] as the molecule, how does the Ki read?
A: Its Ki is 36.5 nM.

Q: For Cc1cnn(-c2nc(N)c(C(=O)NCc3nccc4ccccc34)nc2C)c1 [Ex-342, 3-amino-N-(isoquinolin-1-ylmethyl)-6-methyl-5-(4-methyl-1H-pyrazol-1-yl)pyrazine-2-carboxamide], which Ki is on record?
A: Its Ki is 122 nM.

Q: Which Ki does the source give for Cc1nc(C(=O)NCc2ncnn2C(C)C)c(N)nc1-c1ncco1 [Ex-188, 3-amino-6-methyl-N-{[1-(1-methylethyl)-1H-1,2,4-triazol-5-yl]methyl}-5-(1,3-oxazol-2-yl)pyrazine-2-carboxamide] here?
A: Its Ki is 0.29 nM.

Q: How did the Ki turn out when Cc1nc(C(=O)NCc2ncc(Cl)cc2F)c(N)nc1-c1ncco1 [Ex-74, 3-amino-N-[(5-chloro-3-fluoropyridin-2-yl)methyl]-6-methyl-5-(1,3-oxazol-2-yl)pyrazine-2-carboxamide] was run?
A: The Ki was 2.27 nM.

Q: How did the Ki turn out when Cc1nc(C(=O)NCc2ccn(C)n2)c(N)nc1-c1ncco1 [Ex-26, 3-amino-6-methyl-N-[(1-methyl-1H-pyrazol-3-yl)methyl]-5-(1,3-oxazol-2-yl)pyrazine-2-carboxamide] was run?
A: The Ki was 1.71 nM.

Q: Nc1nc(-n2nccn2)c(Cl)nc1C(=O)NCc1nc2ccccc2o1 [Ex-299, 3-amino-N-(1,3-benzoxazol-2-ylmethyl)-6-chloro-5-(2H-1,2,3-triazol-2-yl)pyrazine-2-carboxamide] was tested. Which Ki did it give?
A: Its Ki is 33.6 nM.

Q: How did the Ki turn out when CCc1c(F)ccnc1CNC(=O)c1nc(C)c(-c2ncco2)nc1N [Ex-163, 3-amino-N-[(3-ethyl-4-fluoropyridin-2-yl)methyl]-6-methyl-5-(1,3-oxazol-2-yl)pyrazine-2-carboxamide] was run?
A: Its Ki is 0.197 nM.
